Assay results published in publication PMC2816653, “Pre-clinical evaluation of cyclin-dependent kinase 2 and 1 inhibition in anti-estrogen-sensitive and resistant breast cancer cells” (British Journal of Cancer, 2009).

Columns and labels:
Assay in all cases: biochemical
Design in all cases: in vitro kinase inhibition assay
CDK9/cyclin T = CDK9/cyclin T (Homo sapiens, UniProt P50750); conditions: read-out: NU2058 % inhibition
CDK5/p25 = biological target: T1, CDK5/p25 (Homo sapiens, UniProt Q00535); conditions: read-out: NU2058 % inhibition
T1 construct: with p25

DYRK1a = DYRK1a (Homo sapiens, UniProt Q13627)

T1 sequence (Q00535 whole entry): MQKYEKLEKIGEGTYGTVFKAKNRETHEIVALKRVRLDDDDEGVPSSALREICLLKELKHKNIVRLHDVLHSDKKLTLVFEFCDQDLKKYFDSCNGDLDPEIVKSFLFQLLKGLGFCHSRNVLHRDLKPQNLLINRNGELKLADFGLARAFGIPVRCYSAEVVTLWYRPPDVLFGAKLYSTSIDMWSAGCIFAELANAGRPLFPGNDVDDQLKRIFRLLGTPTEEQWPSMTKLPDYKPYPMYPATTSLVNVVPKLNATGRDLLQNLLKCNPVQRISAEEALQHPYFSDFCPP
T1 sequence (Q15078 whole entry partner): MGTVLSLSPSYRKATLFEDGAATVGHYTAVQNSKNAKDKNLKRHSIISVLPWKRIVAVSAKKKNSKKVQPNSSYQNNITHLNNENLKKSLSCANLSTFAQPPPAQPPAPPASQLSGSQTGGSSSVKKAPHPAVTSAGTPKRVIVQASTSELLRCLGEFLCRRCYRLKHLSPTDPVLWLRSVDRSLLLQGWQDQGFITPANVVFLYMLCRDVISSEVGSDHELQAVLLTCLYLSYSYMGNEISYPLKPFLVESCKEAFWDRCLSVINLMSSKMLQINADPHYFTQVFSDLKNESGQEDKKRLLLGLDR
Chain of CDK9/cyclin T (P50750 whole entry): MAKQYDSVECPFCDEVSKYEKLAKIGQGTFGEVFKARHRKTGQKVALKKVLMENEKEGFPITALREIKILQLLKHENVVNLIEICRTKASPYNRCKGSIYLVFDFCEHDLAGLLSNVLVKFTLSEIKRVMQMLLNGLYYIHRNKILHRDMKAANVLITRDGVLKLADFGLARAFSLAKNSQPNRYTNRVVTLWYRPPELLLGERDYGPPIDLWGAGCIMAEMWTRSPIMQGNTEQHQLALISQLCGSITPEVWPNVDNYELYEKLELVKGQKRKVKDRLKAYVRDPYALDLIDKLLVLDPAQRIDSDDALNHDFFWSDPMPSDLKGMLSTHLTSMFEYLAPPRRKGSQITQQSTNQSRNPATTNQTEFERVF
Chain of CDK9/cyclin T (O60563 whole entry partner): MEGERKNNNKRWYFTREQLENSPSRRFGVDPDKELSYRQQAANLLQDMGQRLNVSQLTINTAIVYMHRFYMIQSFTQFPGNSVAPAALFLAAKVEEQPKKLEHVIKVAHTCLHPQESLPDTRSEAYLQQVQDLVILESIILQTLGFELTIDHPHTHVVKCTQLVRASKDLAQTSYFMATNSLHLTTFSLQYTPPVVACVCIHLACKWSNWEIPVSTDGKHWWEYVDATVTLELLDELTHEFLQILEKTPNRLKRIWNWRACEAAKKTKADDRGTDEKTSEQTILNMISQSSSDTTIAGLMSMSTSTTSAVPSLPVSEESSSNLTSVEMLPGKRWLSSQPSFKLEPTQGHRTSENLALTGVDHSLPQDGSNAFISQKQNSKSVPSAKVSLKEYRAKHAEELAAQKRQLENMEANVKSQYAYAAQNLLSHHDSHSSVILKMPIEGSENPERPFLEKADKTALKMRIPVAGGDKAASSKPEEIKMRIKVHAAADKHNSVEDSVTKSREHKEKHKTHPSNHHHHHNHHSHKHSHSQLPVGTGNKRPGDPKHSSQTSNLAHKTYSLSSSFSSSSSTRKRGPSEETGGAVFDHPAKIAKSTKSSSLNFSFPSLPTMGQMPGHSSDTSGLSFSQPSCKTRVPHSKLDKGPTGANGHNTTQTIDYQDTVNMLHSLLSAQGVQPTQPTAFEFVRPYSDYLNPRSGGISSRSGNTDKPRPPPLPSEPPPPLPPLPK

| inhibition at 100 µM (CDK9/cyclin T) | inhibition at 100 µM (CDK5/p25) | IC50 (DYRK1a) | SMILES |
| --- | --- | --- | --- |
| 43% | 50% | – | Nc1nc(OCC2CCCCC2)c2nc[nH]c2n1 [NU2058] |
| – | – | 950 nM | NS(=O)(=O)c1ccc(Nc2nc(OCC3CCCCC3)c3nc[nH]c3n2)cc1 [NU6102] |
